The record followed here is US10822352B2, “Aryl, heteroaryl, and heterocyclic compounds for treatment of medical disorders” (Achillion Pharmaceuticals, Inc., priority 2015, dated 2020).

pIC50: −log10 of the molar value. Where two headings read alike, the source gives them in different places.

In this assay the target is Human Factor D (Homo sapiens (Human), UniProt P00746). The experiment in a line: Human Factor D Assay. The class given is biochemical. As for the experimental part: Human Factor D (purified from human serum, Complement Technology, Inc.) at 80 nM final concentration was incubated with test compound at various concentrations for 5 minutes at room temperature in 50 mM Tris, 1M NaCl, pH 7.5. A synthetic substrate Z-L-Lys-SBzl and DTNB (Ellman's reagent) are added to final concentrations of 100 μM each. […] IC50 values are calculated by nonlinear regression of complement Factor D reaction rates as a function of test compound concentration.

Setting [1] is: Human Factor D 80 nM, substrate Z-L-Lys-SBzl, Table 3, read-out: IC5 (Stars).
[2] abbreviates: Human Factor D 80 nM, substrate Z-L-Lys-SBzl, star classes, read-out: IC50.

Sequence of Human Factor D (P00746 26-253): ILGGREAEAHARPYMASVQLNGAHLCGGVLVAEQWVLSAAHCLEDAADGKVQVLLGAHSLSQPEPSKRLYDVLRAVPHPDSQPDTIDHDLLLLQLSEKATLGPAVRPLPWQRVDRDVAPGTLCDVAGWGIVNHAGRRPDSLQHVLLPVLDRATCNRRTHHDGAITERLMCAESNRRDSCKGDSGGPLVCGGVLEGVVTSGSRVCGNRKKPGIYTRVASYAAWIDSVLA

With `CC(=O)c1cn(CC(=O)N2C[C@H](F)C[C@H]2C(=O)NCc2ccncc2)c2ccc(-c3ccnnc3)cc12` [Compound 40, (2S,4R)-1-(2-(3-acetyl-5-(pyridazin-4-yl)-1H-indol-1-yl)acetyl)-4-fluoro-N-(pyridin-4-ylmethyl)pyrrolidine-2-carboxamide], the pIC50 is 5.00 to 6.00.
Consider `NC(=O)c1nn(CC(=O)N2CCC[C@]2(F)C(=O)Nc2cccnc2)c2ccc(-c3ccnnc3)cc12` [Compound 47, 1-(2-((2S,4R)-2-fluoro-2-(pyridin-3-ylcarbamoyl)pyrroli-din-1-yl)-2-oxoethyl)-5-(pyridazin-4-yl)-1H-indazole-3-carboxamide], for which the pIC50 (Human Factor D 80 nM, substrate Z-L-Lys-SBzl, read-out: IC50) was below 5.00.
Take `CC(=O)c1nn(CC(=O)N2C[C@H](F)C[C@H]2C(=O)NC2CCN(C(=O)c3cn[nH]c3)CC2)c2ccc(-c3cnc(C)nc3)cc12` [Compound 261, (2S,4R)-N-(1-(1H-pyrazole-4-carbonyl)piperidin-4-yl)-1-(2-(3-acetyl-5-(2-methylpyrimidin-5-yl)-1H-indazol-1-yl)acetyl)-4-fluoropyrrolidine-2-carboxamide]: the pIC50 (read-out: IC50) is above 6.00.
For the compound `CC(=O)c1nn(CC(=O)N2C[C@H](F)C[C@H]2C(=O)Nc2cccc(Br)n2)c2ccc(-c3nc4c(s3)CCCC4)cc12` [Compound 297], the pIC50 (Human Factor D, assay of Example 8, read-out: IC50) was above 6.00.
On to `Cc1ncc(-c2ccc3c(c2)c([C@H](C)O)nn3CC(=O)N2[C@@H]3C[C@@H]3C[C@H]2C(=O)Nc2cccc(Br)n2)cn1` [Compound 409, (1R,3S,5R)—N-(6-Bromopyridin-2-yl)-2-(2-(3-((S)-1-hydroxyethyl)-5-(2-methylpyrimidin-5-yl)-1H-indazol-1-yl)acetyl)-2-azabicyclo[3.1.0]hexane-3-carboxamide], for which, under setting [1], the pIC50 is above 6.00.
Turning to `Cc1cccc(C[C@H](O)[C@@H]2C[C@@H](F)CN2C(=O)Cn2cc(C(N)=O)c3cc(-c4cnc(C)nc4)ccc32)n1` [Compound 455, 1-(2-((2S,4R)-4-fluoro-2-((S)-1-hydroxy-2-(6-methylpyridin-2-yl)ethyl)pyrrolidin-1-yl)-2-oxoethyl)-5-(2-methylpyrimidin-5-yl)-1H-indole-3-carboxamide], the pIC50 under setting [1] was below 5.00.
Same read-out and setting: with `Cc1cccc(NC(=O)[C@@H]2[C@H]3CC[C@H](C3)N2C(=O)Cn2cc(C(N)=O)c3cc(-c4ccc(F)nc4)ccc32)n1` [Compound 500, 5-(6-Fluoropyridin-3-yl)-1-(2-((1R,3S,4S)-3-(6-methylpyridin-2-ylcarbamoyl)-2-azabicyclo[2.2.1]heptan-2-yl)-2-oxoethyl)-1H-indole-3-carboxamide] the figure was below 5.00.
Take `CC(=O)c1nn(CC(=O)N2C[C@@H](C)C[C@H]2C(=O)Nc2nc(Br)ccc2C)c2ccc(-c3cnc(C)nc3)cc12` [Compound 643, (2S,4S)-1-(2-(3-Acetyl-5-(2-methylpyrimidin-5-yl)-1H-indazol-1-yl)acetyl)-N-(6-bromo-3-methylpyridin-2-yl)-4-methylpyrrolidine-2-carboxamide]: under setting [2], the pIC50 is above 6.00.
Take `CC(=O)c1nn(CC(=O)N2C[C@H](F)C[C@@H]2C(=O)Nc2nc(Br)ccc2C(=O)O)c2ccc(-c3cnc(C)nc3)cc12` [Compound 648, 2-((2R,4R)-1-(2-(3-Acetyl-5-(2-methylpyrimidin-5-yl)-1H-indazol-1-yl)acetyl)-4-fluoropyrrolidine-2-carboxamido)-6-bromonicotinic acid]: the pIC50 was 5.00 to 6.00.
As to `Cc1cccc(NC(=O)[C@@H]2[C@H]3CC[C@H](C3)N2C(=O)Cn2cc(C(N)=O)c3cc(-c4n[nH]c5ccsc45)ccc32)n1` [Compound 704, 1-(2-((1R,3S,4S)-3-(6-Methylpyridin-2-ylcarbamoyl)-2-azabicyclo[2.2.1]heptan-2-yl)-2-oxoethyl)-5-(1H-thieno[3,2-c]pyrazol-3-yl)-1H-indole-3-carboxamide], under setting [2], the pIC50 is below 5.00.
`COc1ccc(N2C[C@@H]3CC[C@H]2C=C3c2ccc3c(c2)c(C(C)=O)nn3CC(=O)N2C[C@H](F)C[C@H]2C(=O)Nc2cccc(Br)n2)cc1` [Compound 721, (2S,4R)-1-(2-(3-Acetyl-5-((1S,4R)-2-(4-methoxyphenyl)-2-azabicyclo[2.2.2]oct-5-en-5-yl)-1H-indazol-1-yl)acetyl)-N-(6-bromopyridin-2-yl)-4-fluoropyrrolidine-2-carboxamide]: the pIC50 under setting [2] is above 6.00.
On the same count and under the same terms, as for `CC(=O)c1nn(CC(=O)N2C[C@H](F)C[C@H]2C(=O)Nc2cccc(Br)n2)c2ccc(-c3cnc(S(C)(=N)=O)nc3)cc12` (stereo partly drawn) [Compound 732, (2S,4R)-1-(2-(3-Acetyl-5-(2-(S-methylsulfonimidoyl)pyrimidin-5-yl)-1H-indazol-1-yl)acetyl)-N-(6-bromopyridin-2-yl)-4-fluoropyrrolidine-2-carboxamide], the figure is above 6.00.
The same measure, in the same setting: with `CC(=O)c1nn(CC(=O)N2[C@H]3CC[C@H](CC3)[C@H]2C(=O)Nc2cccc(Br)n2)c2ccc(-c3cnc(C)nc3)cc12` [Compound 734, (1R,3S,4R)-2-(2-(3-Acetyl-5-(2-methylpyrimidin-5-yl)-1H-indazol-1-yl)acetyl)-N-(6-bromopyridin-2-yl)-2-azabicyclo[2.2.2]octane-3-carboxamide] the figure was above 6.00.
